# According to patent US20030186946A1, “Suppression of cytotoxic protein conformers” (priority 2002, published 2003):
# Like-named read-outs stand apart in the source and are kept apart here.
# Experiments:
# human amylin [1] = target: T1, human amylin (Homo sapiens, UniProt P10997); conditions: 10 μM thioflavin-T
# T1 sequence (P10997 34-70 limits assumed): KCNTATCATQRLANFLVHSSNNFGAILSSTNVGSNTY
# Procedure: Thioflavin-T binding fluorescent assays. The effects of various polycyclic compounds on islet amyloid formation were measured by fluorescence spectroscopy, using a SpectraMAX Gemini XS Fluorescence Spectrophotometer (Molecular Devices Corporation, Sunnyvale, Calif.). Excitation and emission maxima were set to 450 nm and 510 nm respectively using a cutoff filter at 495 nm. Thioflavin-T binds to amylin fibrils, but not to monomeric amylin (Goldsbury et al., (1999), J. Mol. Biol., 285:33-39). […] The rate of amylin fibril formation was determined by following thioflavin-T fluorescence in the presence or absence of the potential inhibitory drug. […] Background fluorescence by acridine and acridine orange in the absence of amylin was subtracted from the experimental results. The control preparation contained human amylin and thioflavin-T in the absence of drug. The rate of fluorescence enhancement under these conditions was used to compare amylin fibril formation in the absence and presence of the drug. All other experimental conditions were identical.
# Tri-prolyl amylin and rat amylin with thioflavin-T were also used as additional controls.
# Each data point represents the mean±s.e.m of three separate reactions.
# Effect of chlorpromazine on enhancement of thioflavin-Tfluorescence by human amylin (FIG. 2). Chlorpromazine (700 μM) (π) was incubated in 10 mM tris p H 7.4, with monomeric human amylin (70 μM) in the presence of thioflavin-T (10 μM). The fluorescence of the reaction was monitored over 24 hours as described in the methods. […] Each data point represents the mean±s.e.m of three separate reactions.
# Effect of selected polycylic compounds on enhancement of thioflavin-Tfluorescence by human amylin (FIG. 3). Acridine, acridine orange, neutral red and methylene blue are selected examples of fused tricyclic ring compounds. […] Compound structures are shown adjacent to the appropriate graph. […] Fluorescence was monitored over 24 h as described in the Methods. A preparation containing human amylin and thioflavin-T only (▪), was included as a comparison in the absence of drug. […] Each data point represents the mean±s.e.m of three independent experiments.
# human amylin [2] = target: T1, human amylin; experiment: Radiolabelled precipitation assay of amylin fibril formation; format: biochemical; parameters: Amylin is a 37-residue; C-terminally amidated peptide having a disulfide bridge between the cysteines at residues 2 and 7; purchased Bachem Calif; (Torrance, Calif.); host or cells: chemical synthesis; conditions: 200 μM Congo red, 10 μM human amylin, after 5 h
# Procedure: Radiolabelled Precipitation Assays. The precipitation of radiolabelled human and rat amylin fibrils was used as an independent method to monitor assembly of amylin fibrils in the presence or absence of potential inhibitors of amylin fibril formation. […] Incubation mixtures were then centrifuged at either 16,000×g or 100,000×g, for 20 min, and the amount of [^3H]-human amylin remaining in the supernatant after centrifugation was determined (Beckman LSW 3801 β-counter, USA). Results were expressed as percentages of precipitable counts per minute, relative to total radioactivity in the supernatant.
# Incorporation of [^3H]-amylin into amylin fibrils was followed for 24 hours. Human amylin fibrils were precipitated by centrifugation at either 16,000×g (FIG. 7A) or at 100,000×g (FIG. 7B). Rat amylin (10 μM) in the presence of [^3H]-rat amylin was used as a non-fibril forming control (♦) (FIG. 7A). The results are shown as the percentage of precipitable radioactive amylin, relative to total radioactivity in the supernatant at each time point. Each data point represents the mean±s.e.m of three separate reactions.
# The incorporation of radioactive monomeric amylin into the human amylin fibrils as they form, can be used to measure the rate at which amylin fibrils form in the presence or absence of a potential inhibitory drug. Amylin fibrils can be separated from solution by centrifugation and the amount of radioactive amylin precipitated in the amylin fibril pellet is then used as a measure of the amount of amylin fibrils present at that time.
# Thioflavin-T, although not polycyclic, is widely used in fluorescent assays to measure amylin fibril formation. Incorporation of radioactivity into the pellet of an aliquot of the reaction mixture centrifuged at 16,000×g, for 20 minutes was monitored over the time periods indicated. Rat amylin (10 μM) with [^3H]-rat amylin added was used as a non fibril forming control (∘) in each experiment. The results are shown as the percentage of precipitable radioactive amyloid, relative to total radioactivity in the supernatant at each time point. Each data point represents the mean±s.e.m of three separate experiments.
substance,measurement,setting,value
Congo red,enhancement of thioflavin-T fluorescence by human amylin,"human amylin [1]; 700 μM compound, 70 μM human amylin, 10 mM tris pH 7.4, over 72 hours (FIG. 1)",no increase in fluorescence beyond that of the rat control preparation
same,enhancement of thioflavin-T fluorescence by human amylin,"human amylin [1]; 1200 μM compound (20-fold molar excess), 60 μM human amylin, over 24 h (FIG. 3)",no increase in thioflavin-T enhanced fluorescence
same,reduction in amyloid content,human amylin [2],approximately 3 fold
